Tests used:
hepatocytes [1] = experiment: Cell viability by 51Cr release; format: cell-based, rat; set-up: concentration or dose not given beside the values
Experimental: (§1) Cytotoxic effects of the microspheres of EXAMPLE 3 and free doxorubicin were investigated using short-term monolayer cultures established from the livers of normal rats and rats which had been fed 2-AAF or DEN. Cell viability was evaluated by trypan blue exclusion and confirmed by ^51 Cr release.
(§2) Male Fischer 344 rats weighing 150 to 200 g were used to obtain viable hepatocytes. The animals were fed a basal, high-casein diet. A 12-hr light cycle was maintained in the animal colony and water was given ad libitum. Carcinogen altered hepatocytes were produced by feeding the animals a diet containing 0.02% 2-AAF (w/w) or 80 ppm DEN in the drinking water for 8 to 12 weeks. Cells from such animals were used in the cytotoxicity and cell viability studies reported herein.
(§3) Liver cell suspensions were prepared by the collagenase perfusion technique. Cell suspensions were passed through sterile gauze filters to remove large tissue pieces. Viability was assessed by trypan blue exclusion and perfusates containing less than 65% viable cells were not used. Cells were plated at density of 1×10^6 viable cells per plastic culture flask of 25 cm^2 surface area in 4 ml of L-15 medium containing 3.5 mg/ml 4-(2-hydroxyethyl)-1-piperazineethanesulfonic acid and 2 mg/ml bovine serum albumin. The medium was supplemented with 10% fetal bovine serum, 100 μg/ml penicillin, and streptomycin. Following a 2 hour attachment period at 37° in a water-saturated 5% CO2 -95% air incubator, the cells were washed twice with medium and placed in 4ml of fresh medium supplemented with 200 μl PBS, free doxorubicin, uncoupled microspheres, or the polymer bound drug. At various times 0.8 ml of trypan blue was added to each flask and incubated for 10 minutes at 37°. The medium was removed and the number of viable cells was counted.
^51 Cr in the form of sodium chromate in sterile isotonic saline was added to the cell suspensions at a concentration of 100 μCi/0.5 ml/5×10^6 cells. The cells were then incubated at 37° for 1 hour with constant shaking. After labeling, the supernatent was removed by centrifugation at 350×g for 5 min and the cells were washed a minimum of 5 times in L-15 medium. Labeled cells were then aliquoted into culture flasks and allowed to attach as previously described. At various times 250 μl aliquots were removed from the flasks and counted in a Packard Gamma Counter. As a control for complete ^51 Cr release, 0% cell viability, cells were detached from the culture flask surface with 10% trypsin and subsequently lysed with 0.5% Nonidet P-40 followed by sonication. Total ^51 Cr release was obtained by subtraction of the residual radioactivity which remained associated with the cell debris.

[2] = system: rat liver cancer cell line RLC; experiment: Growth inhibition study; format: cell-based
Experimental: (§4) Cell lines used were the human leukemia clones CCRF-CEM/Vbl 500 and CCRF-CEM/Vbl 100 and rat liver cancer cells (RLC). All cultures were maintained in RPMI-1640 medium supplemented with fetal calf serum (2%), newborn calf serum (8%), penicillin-streptomycin (0.5 mg/ml), and fungizone (0.015 mg/ml) (Flow Laboratories Inc.). Suspension cultures were diluted to 4×10^4 cells/assay/1.8 ml medium and attached cell lines were plated at 2.5×10^5 cells/25 cm^2 growth area/3.6 ml medium. Appropriate quantities of free doxorubicin, microsphere coupled doxorubicin, plain polyglutaraldehyde microspheres, or PBS, were added and the assays were incubated for 3-6 doubling times at 37° in a 5% CO2 - 95% air incubator. Cells were then counted on a Model Zb Coulter counter and a ratio of total number of cells after incubation per number of cells originally introduced (Nt /No) was obtained.
The cytostatic activity of the drug polymer complex of EXAMPLE 3 was further investigated using the rat liver cancer cell line RLC. […] Furthermore, the Adr-PGLs retained growth inhibition properties at concentrations as low as 1×10^-9 M.

CEM/Vbl 500 = experiment: Growth inhibition study; format: cell-based, human; settings: Table 7, CEM/Vbl 100
Experimental: as §4
(§5) The cell lines CEM/Vbl 100 and CEM/Vbl 500 were used in cytostatic assays to determine differences in growth inhibition properties between free doxorubicin and polymer-bound drug. Both cell lines are resistant to the effects of vinca alkaloids and are cross-resistant to Adr. […] However, using 10^-7 M of the coupled drug, the growth inhibition for both cell lines is greater than 50%. At 10^-8 M, polymer bound doxorubicin inhibits growth 4-10 times more effectively than free drug. […] Each experiment was performed three times and drug concentrations were tested in duplicate.

CEM/Vbl 100 = experiment: Growth inhibition study; format: cell-based, human; settings: 3-6 doubling times
Experimental: as §4, §5

[3] = Time-survival response, trypan blue viability; format: cell-based; settings: rat, hepatocytes, 10^-6 M
Text: as §2, §3
These studies are not continued for longer than 24 hours due to the rapid natural decline in viability observed with untreated cells after prolonged cell culture. The viability of untreated control cultures remained constant throughout each experiment. […] However, cell viability in the presence of free drug was not affected during the first 4 hours of treatment. Alternatively, at 24 hours only 10% of the cells treated with free drug remained viable while 64% of those treated with the bound drug were unaffected. Cell viability was not influenced by addition of uncoupled microspheres to the cultures.

hepatocytes [4] = experiment: Cell viability by trypan blue exclusion (Table 2); format: cell-based, rat; set-up: concentration or dose not given beside the values
Experimental: as §1, §2, §3

S-180 = experiment: Cytostatic assay, IC50 determination; format: cell-based; settings: after 4 to 6 doubling times, average of three determinations
Experimental: (§6) In order to test the cytostatic activity of the microspheres, IC50 determinations were made with both the free drug and the drug-polymer complexes. All cell lines were maintained in suspension cultures in RPMI-1640 medium supplemented with the 2% fetal calf serum, 8% newborn calf serum, 0.5 mg/ml penicillin-streptomycin, and 0.015 mg/ml fungizone. The cells were diluted to 40,000 cells/assay/1.8 ml medium and an amount of free doxorubicin, doxorubicin-microspheres or plain microspheres was added in 0.2 ml of phosphate buffered saline. After 4 to 6 doubling times had elapsed, the remaining cells were counted on a Coulter counter. A ratio of the number of cells after incubation per the number of cells originally introduced (Nt/No) was obtained. The drug concentration required for 50% inhibition of cell growth (IC50) was calculated according to the formula [formula]

CCRF-CEM/Vbl 500 = experiment: Cytostatic assay, IC50 determination; format: cell-based; settings: Homo sapiens, after 4 to 6 doubling times, average of three determinations
Experimental: as §6

L1210 = experiment: Cytostatic assay, IC50 determination; format: cell-based; settings: Mus musculus, after 4 to 6 doubling times, average of three determinations
Experimental: as §6

CCRF-CEM = experiment: Cytostatic assay, IC50 determination; format: cell-based; settings: Homo sapiens, after 4 to 6 doubling times, average of three determinations
Experimental: as §6

CCRF-CEM/Vbl 100 = experiment: Cytostatic assay, IC50 determination; format: cell-based; settings: Homo sapiens, after 4 to 6 doubling times, average of three determinations
Experimental: as §6

[5] = system: hepatocytes made resistant by 2-AAF feeding; experiment: Viability of carcinogen altered drug-resistant hepatocytes; format: cell-based, rat; settings: for viability at 1 µM: 10^-6 M
Text: as §2, §3
Hepatocytes in perfusates obtained from rats which had been fed the dietary carcinogen 2-AAF are highly resistant to the cytocidal effects of doxorubicin. Experiments were performed to determine the toxicity of the doxorubicin microspheres with regard to these resistant hepatocytes. […] Concentrations of free doxorubicin must be approximately 100-fold higher than the polymer-bound drug to decrease viability to 50%. The most significant differences in cytotoxicity occurred at a concentration of 10^-5 M where the free drug treated hepatocytes remained unaffected and polymer-bound doxorubicin decreased viability to 47%. Subsequent experiments were done with 10^-6 M, free or bound drug, to approach clinically relevant concentrations.
Cell kill kinetics of hepatocytes made resistant by 2-AAF feeding are depicted in TABLE 5. […] At 24 hours, only 67% of the cells remained viable. When hepatocytes made resistant by DEN feeding were used, the same results for free and polymer-bound Adr at 10^-6 M were obtained.

[6] = system: hepatocytes made resistant by DEN feeding; experiment: as above; format: cell-based, rat; settings: 24 hours; 10^-6 M
Text: as §2
Liver cell suspensions were prepared by the collagenase perfusion technique. Cell suspensions were passed through sterile gauze filters to remove large tissue pieces. Viability was assessed by trypan blue exclusion and perfusates containing less than 65% viable cells were not used. Cells were plated at density of 1×10^6 viable cells per plastic culture flask of 25 cm^2 surface area in 4 ml of L-15 medium containing 3.5 mg/ml 4-(2-hydroxyethyl)-1-piperazineethanesulfonic acid and 2 mg/ml bovine serum albumin. The medium was supplemented with 10% fetal bovine serum, 100 μg/ml penicillin, and streptomycin. […] The medium was removed and the number of viable cells was counted. […]

[7] = Homo sapiens, CEM/VBL100, 10^-5 M
[8] = Homo sapiens, CEM/VBL100, 10^-6 M
[9] = Homo sapiens, CEM/VBL100, 10^-7 M
[10] = Homo sapiens, CEM/VBL100, 10^-8 M
[11] = Homo sapiens, CEM/VBL100, 10^-9 M
[12] = Homo sapiens, CEM/VBL100, 10^-10 M

SMILES: COc1cccc2c1C(=O)c1c(O)c3c(c(O)c1C2=O)C[C@@](O)(C(=O)CO)C[C@@H]3O[C@H]1C[C@H](N)[C@H](O)[C@H](C)O1 [Free doxorubicin, doxorubicin]
- Percent viability measured by Intracellular CR^51 (hepatocytes [1]; incubation time 3 hr): 100%
- Percent viability measured by Intracellular CR^51 (hepatocytes [1]; incubation time 5 hr): 96%
- Percent viability measured by Intracellular CR^51 (hepatocytes [1]; incubation time 8 hr): 86%
- Percent viability measured by Intracellular CR^51 (hepatocytes [1]; incubation time 12 hr): 75%
- Percent viability measured by Intracellular CR^51 (hepatocytes [1]; incubation time 18 hr): 57%
- inhibition at 1000 µM ([2]; 10^-3 M): 100%
- inhibition at 100 µM ([2]; 10^-4 M): 80%
- inhibition at 10 µM ([2]; 10^-5 M): 36%
- inhibition at 1 µM ([2]; 10^-6 M): 22%
- inhibition at 0.1 µM ([2]; 10^-7 M): 0%
- inhibition at 0.01 µM ([2]; 10^-8 M): 0%
- inhibition at 0.001 µM ([2]; 10^-9 M): 0%
- inhibition at 0.0001 µM ([2]; 10^-10 M): 0%
- IC50 ([2]; RLC, read-out: 50% inhibitory concentration (IC50)): 18000 nM
- % Inhibition of growth (CEM/Vbl 500; 10^-7 M, listed as Free Drug): 32%
- inhibition at 10 µM (CEM/Vbl 500; [7]): 81%
- inhibition at 1 µM (CEM/Vbl 500; [8]): 67%
- inhibition at 0.1 µM (CEM/Vbl 500; [9]): < 32%
- inhibition at 0.01 µM (CEM/Vbl 500; [10]): 14%
- inhibition at 0.001 µM (CEM/Vbl 500; [11]): 0%
- inhibition at 0.0001 µM (CEM/Vbl 500; [12]): 0%
- inhibition at 10 pM (CEM/Vbl 500; Homo sapiens, CEM/VBL100, 10^-11 M): 0%
- % Inhibition of growth (CEM/Vbl 100; 10^-7 M, listed as Free Drug): 22%
- inhibition at 10 µM (CEM/Vbl 100; [7]): 98%
- inhibition at 1 µM (CEM/Vbl 100; [8]): 86%
- inhibition at 0.1 µM (CEM/Vbl 100; [9]): < 22%
- inhibition at 0.01 µM (CEM/Vbl 100; [10]): 3%
- inhibition at 0.001 µM (CEM/Vbl 100; [11]): 5%
- inhibition at 0.0001 µM (CEM/Vbl 100; [12]): 0%
- viability at 2 h, 1 µM ([3]; 2 hours): 99%
- viability at 4 h, 1 µM ([3]; 4 hours): 98%
- viability at 6 h, 1 µM ([3]; 6 hours): 91%
- viability at 8 h, 1 µM ([3]; 8 hours): 81%
- viability at 12 h, 1 µM ([3]; 12 hours): 72%
- viability at 18 h, 1 µM ([3]; 18 hours): 59%
- viability at 24 h, 1 µM ([3]; 24 hours): 10%
- Percent viability measured by Dye Exclusion (hepatocytes [4]; incubation time 3 hr): 100%
- Percent viability measured by Dye Exclusion (hepatocytes [4]; incubation time 5 hr): 99%
- Percent viability measured by Dye Exclusion (hepatocytes [4]; incubation time 8 hr): 81%
- Percent viability measured by Dye Exclusion (hepatocytes [4]; incubation time 12 hr): 72%
- Percent viability measured by Dye Exclusion (hepatocytes [4]; incubation time 18 hr): 59%
- IC50 (S-180): 23 nM
- IC50 (CCRF-CEM/Vbl 500): 320 nM
- IC50 (L1210): 28 nM
- IC50 (CCRF-CEM): 11 nM
- IC50 (CCRF-CEM/Vbl 100): 390 nM
- % Viability ([5]; 10^-5 M, 24-hr exposure, survival of attached cells compared to controls): unaffected
- % Viability ([5]; 24 hours, 10^-6 M (Table 5)): no detectable killing effect
- viability at 100 µM ([5]; Rattus norvegicus, Hepatocyte, 10^-4 M, 24-hr exposure, survival of attached cells compared to controls): 68%
- viability at 10 µM ([5]; Rattus norvegicus, Hepatocyte, 10^-5 M, 24-hr exposure, survival of attached cells compared to controls): 100%
- viability at 1 µM ([5]; Rattus norvegicus, Hepatocyte, 24-hr exposure, survival of attached cells compared to controls (Table 3)): 100%
- viability at 0.1 µM ([5]; Rattus norvegicus, Hepatocyte, 10^-7 M, 24-hr exposure, survival of attached cells compared to controls): 100%
- viability at 1 µM ([5]; Rattus norvegicus, Hepatocyte, 2 hours): 100%
- viability at 1 µM ([5]; Rattus norvegicus, Hepatocyte, 3 hours): 100%
- viability at 1 µM ([5]; Rattus norvegicus, Hepatocyte, 4 hours): 100%
- viability at 1 µM ([5]; Rattus norvegicus, Hepatocyte, 6 hours): 100%
- viability at 1 µM ([5]; Rattus norvegicus, Hepatocyte, 8 hours): 100%
- viability at 1 µM ([5]; Rattus norvegicus, Hepatocyte, 16 hours): 100%
- viability at 1 µM ([5]; Rattus norvegicus, Hepatocyte, 22 hours): 100%
- viability [6]: no killing effect
